The text below walks through data of patent publication US8952024B2, “Herbicidal pyrimidone derivatives” (E I du Pont de Nemours and Company, priority 2009, dated 2015).

Each structure is given as a SMILES string.

The first assay relates to Italian ryegrass (Lolium multiflorum). As to the kind of experiment: Test D pre-/postemergence plant response. In kind it is in vivo. The settings on record: Postemergence, 125 g ai/ha; scale 0 to 100 (0 no effect, 100 complete control). In a few lines: (§1)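 Seeds were sown in a loam–sand blend and sprayed preemergence with compound in a non-phytotoxic solvent mixture containing surfactant; plants at 2–18 cm (1- to 4-leaf stage) received the same formulation postemergence. After 14 to 21 days in a greenhouse, injury was rated visually against untreated controls (0 = no effect, 100 = complete control).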
Take `COCCn1c(-c2ccsc2)ncc(C(=O)C2=C(O)C3CCC(C3)C2=O)c1=O` (stereo not drawn) [Compound 228]: the “Plant response rating, Ryegrass, Italian” value came out at 5.

Another assay deals with purslane (common purslane, Portulaca oleracea). Description: Test D pre-/postemergence plant response. The assay is classed as in vivo. The settings on record: Postemergence, 125 g ai/ha; scale 0 to 100 (0 no effect, 100 complete control). In a few lines:
as §1
Regarding `COCCn1c(-c2ccsc2)ncc(C(=O)C2=C(O)C3CCC(C3)C2=O)c1=O` (stereo not drawn) [Compound 228], the “Plant response rating, Purslane” value came out at 35.

Another assay has as its system deadnettle (henbit deadnettle, Lamium amplexicaule). As to the kind of experiment: Test B pre-/postemergence plant response. In kind it is in vivo. The settings on record: Postemergence, 31 g ai/ha; 0 to 100 scale (0 no effect, 100 complete control). The method, boiled down:
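Ratings reflect visual comparison with untreated controls 13 to 15 days after application, from 0 (no effect) to 100 (complete control). Application was preemergence to seeded loam/sand soil or postemergence to 1- to 4-leaf plants, with compound in a non-phytotoxic, surfactant-containing solvent.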
Regarding `Cc1ccc(Cl)cc1-n1c(-c2cccc(F)c2)ncc(C(=O)C2=C(O)CCCC2=O)c1=O` [Compound 184], the “Plant response rating, Deadnettle” value is recorded as 100.
Same read-out and setting: the figure for `O=C1CCCC(O)=C1C(=O)c1cnc(-c2cccc(F)c2)n(C2CCCCC2)c1=O` [Compound 187] is 80.
On the same count and under the same terms, the figure for `O=C1CCCC(O)=C1C(=O)c1cnc(-c2cccs2)n(C2CCCCC2)c1=O` [Compound 189] is 85.
On the same count and under the same terms, the figure for `CCCn1c(-c2cccc(Cl)c2)ncc(C(=O)C2=C(O)CCCC2=O)c1=O` [Compound 190] is 65.
Regarding `Cc1cc(-n2c(-c3cccc(F)c3)ncc(C(=O)C3=C(O)CCCC3=O)c2=O)ccc1F` [Compound 191], the “Plant response rating, Deadnettle” value is reported as 90.
For `O=C1CCCC(O)=C1C(=O)c1cnc(-c2ccc(F)cc2)n(C2CCCCC2)c1=O` [Compound 197], the “Plant response rating, Deadnettle” value worked out at 100.

Staying with this assay, now noted: Postemergence, 62 g ai/ha; scale 0 to 100 (0 no effect, 100 complete control).
With `Cc1cc(-n2c(-c3cccc(F)c3)ncc(C(=O)C3=C(O)CCCC3=O)c2=O)ccc1F` [Compound 191], the “Plant response rating, Deadnettle” value was found to be 100.
The same measure, in the same setting: as for `O=C1CCCC(O)=C1C(=O)c1cnc(-c2ccc(F)cc2)n(C2CCCCC2)c1=O` [Compound 197], the figure is 100.

Still in this assay, the particulars now being: Postemergence, 125 g ai/ha; scale 0 to 100 (0 no effect, 100 complete control).
`Cc1ccc(Cl)cc1-n1c(-c2cccc(F)c2)ncc(C(=O)C2=C(O)CCCC2=O)c1=O` [Compound 184]: the “Plant response rating, Deadnettle” value was found to be 100.
The same measure, in the same setting: the figure for `O=C1CCCC(O)=C1C(=O)c1cnc(-c2cccs2)n(C2CCCCC2)c1=O` [Compound 189] is 100.
Consider `CCCn1c(-c2cccc(Cl)c2)ncc(C(=O)C2=C(O)CCCC2=O)c1=O` [Compound 190], for which the “Plant response rating, Deadnettle” value was 100.
The same measure, in the same setting: as for `Cc1cc(-n2c(-c3cccc(F)c3)ncc(C(=O)C3=C(O)CCCC3=O)c2=O)ccc1F` [Compound 191], the figure is 100.
Same read-out and setting: as for `O=C1CCCC(O)=C1C(=O)c1cnc(-c2ccc(F)cc2)n(C2CCCCC2)c1=O` [Compound 197], the figure is 100.

The assay is the same for the next values; noted with them: Postemergence, 250 g ai/ha; scale 0 to 100 (0 no effect, 100 complete control); 13 to 15 days.
On to `Cc1ccc(Cl)cc1-n1c(-c2cccc(F)c2)ncc(C(=O)C2=C(O)CCCC2=O)c1=O` [Compound 184], for which the “Plant response rating, Deadnettle” value amounted to 100.
In the case of `O=C1CCCC(O)=C1C(=O)c1cnc(-c2cccc(F)c2)n(C2CCCCC2)c1=O` [Compound 187], the “Plant response rating, Deadnettle” value turned out to be 100.
Same read-out and setting: the figure for `O=C1CCCC(O)=C1C(=O)c1cnc(-c2cccs2)n(C2CCCCC2)c1=O` [Compound 189] is 100.
Consider `CCCn1c(-c2cccc(Cl)c2)ncc(C(=O)C2=C(O)CCCC2=O)c1=O` [Compound 190], for which the “Plant response rating, Deadnettle” value worked out at 100.
With `Cc1cc(-n2c(-c3cccc(F)c3)ncc(C(=O)C3=C(O)CCCC3=O)c2=O)ccc1F` [Compound 191], the “Plant response rating, Deadnettle” value amounted to 100.
Same read-out and setting: the figure for `O=C1CCCC(O)=C1C(=O)c1cnc(-c2ccc(F)cc2)n(C2CCCCC2)c1=O` [Compound 197] is 100.
